Test results: PubChem BioAssay (NCI)
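All cell lines were grown in 96-well plates and treated with compound for 48 hours. The concentration for full growth arrest is given as TGI.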

Columns and labels:
Assay in all cases: inhibition of tumour cell growth, NCI panel, 48 h
RPMI-8226 leukemia = test system: RPMI-8226 leukemia
NCI-H23 lung = test system: NCI-H23 lung
KM12 colon = test system: KM12 colon
SNB-19 CNS = test system: SNB-19 CNS
HCC-2998 colon = test system: HCC-2998 colon
M14 melanoma = test system: M14 melanoma
HS 578T breast = test system: HS 578T breast
OVCAR-8 ovarian = test system: OVCAR-8 ovarian
UACC-62 melanoma = test system: UACC-62 melanoma
NCI-H226 lung = test system: NCI-H226 lung
MOLT-4 leukemia = test system: MOLT-4 leukemia
SK-MEL-2 melanoma = test system: SK-MEL-2 melanoma
A549 NSCLC = test system: A549 NSCLC
SF-268 CNS = test system: SF-268 CNS
U251 CNS = test system: U251 CNS
PC-3 prostate = test system: PC-3 prostate
MDA-MB-435 = test system: MDA-MB-435
NCI/ADR-RES ovarian = test system: NCI/ADR-RES ovarian
IGROV1 ovarian = test system: IGROV1 ovarian
BT-549 breast = test system: BT-549 breast
SK-MEL-5 melanoma = test system: SK-MEL-5 melanoma
EKVX NSCLC = test system: EKVX NSCLC
MALME-3M melanoma = test system: MALME-3M melanoma
CAKI-1 renal = test system: CAKI-1 renal
OVCAR-5 ovarian = test system: OVCAR-5 ovarian
SK-OV-3 ovarian = test system: SK-OV-3 ovarian
T-47D breast = test system: T-47D breast
OVCAR-3 ovarian = test system: OVCAR-3 ovarian
HT29 colon = test system: HT29 colon
HCT-116 colon = test system: HCT-116 colon
TK-10 renal = test system: TK-10 renal
OVCAR-4 ovarian = test system: OVCAR-4 ovarian
HCT-15 colon = test system: HCT-15 colon
SW-620 colon = test system: SW-620 colon
UACC-257 melanoma = test system: UACC-257 melanoma
786-0 renal = test system: 786-0 renal
MCF7 breast = test system: MCF7 breast
HOP-62 NSCLC = test system: HOP-62 NSCLC
MDA-N = test system: MDA-N
SK-MEL-28 melanoma = test system: SK-MEL-28 melanoma
MDA-MB-231 breast = test system: MDA-MB-231 breast
SF-295 CNS = test system: SF-295 CNS
ACHN renal = test system: ACHN renal
RXF 393 renal = test system: RXF 393 renal
CCRF-CEM leukemia = test system: CCRF-CEM leukemia
SR leukemia = test system: SR leukemia
DU-145 prostate = test system: DU-145 prostate
K-562 leukemia = test system: K-562 leukemia
COLO 205 colon = test system: COLO 205 colon
NCI-H522 lung = test system: NCI-H522 lung
UO-31 renal = test system: UO-31 renal
HOP-92 NSCLC = test system: HOP-92 NSCLC
SN12C renal = test system: SN12C renal
SNB-75 CNS = test system: SNB-75 CNS
SF-539 CNS = test system: SF-539 CNS
HL-60(TB) leukemia = test system: HL-60(TB) leukemia
LOX IMVI melanoma = test system: LOX IMVI melanoma
A498 renal = test system: A498 renal

Measured: TGI

CN1CCCN(C)CCCN(C)CCCN(C)CCC1
not listed: HOP-92 NSCLC | SN12C renal | SNB-75 CNS | SF-539 CNS | HL-60(TB) leukemia | LOX IMVI melanoma | A498 renal
> 100 µM: all other assays above

c1ccc2[nH]c(C3CCCCO3)nc2c1 (configuration not stated)
not listed: A498 renal
> 100 µM: all other assays above

Cc1ccc(N=Nc2c(O)c(C(=O)O)cc3ccccc23)c(S(=O)(=O)O)c1
not listed: HCC-2998 colon | MCF7 breast | SF-539 CNS | HL-60(TB) leukemia
> 100 µM: all other assays above
